The structures appear in SMILES notation. “Also recorded” adds a separate entry of the source. Like-named read-outs stand apart in the source and are kept apart here.

The values below come from patent publication US20110269817A1, “COMPOSITIONS AND METHODS RELATED TO SIRT1 FUNCTION” (The Regents of the University of California, priority 2008, published 2011).

For assay [1], the system named is CLOCK-SIRT1 interaction. The assay is described as follows: CLOCK-SIRT1 interaction (coimmunoprecipitation) in transfected JEG3 cells. The assay is classed as cell-based, human. The conditions noted are these: treated 1, 2 and 6 h, 1 mM NAD+, 10 mM glucose, 1 mM pyruvate, 100 μM DFO, 100 μM resveratrol, 120 μM splitomicin. As to the method:
The effect of various agents on the CLOCK-SIRT1 interaction was analyzed. […] JEG3 cells were cultured in BME containing 10% FBS and transfected with Myc-CLOCK, Myc-BMAL1, and Flag-SIRT1 constructs. Negative control (NC) represents cells transfected only with Myc-CLOCK and Myc-BMAL1. 24 h after transfection cells were replated, allowed to readhere for another 16 hours, and treated with indicated reagents for 1, 2 and 6 hours. Here the results with 6 h treatment are shown, the same results were obtained at 1 h and 2 h. Nuclear extracts were processed as previously described (Hirayama et al. 2007). This experiment was performed 3 times and a representative result is shown.
Legend: Lane 1: control (C); lane 2: 50% horse serum (HS); lane 3: 1 mM NAD^+ (NAD^+); lane 4: 10 mM glucose (Glc); lane 5: 1 mM pyruvate (Pyr); 6: 100 μM DFO (DF); lane 7: 100 μM resveratrol; (Res) lane 8:120 μM splitomicin (Split). Lane 9: negative control (NC).

The test system of assay [2] is dbp expression levels in WT MEFs. The assay is described as follows: dbp circadian expression in serum-shocked WT MEFs treated with SIRT1 inhibitors, quantitative PCR. The assay is classed as cell-based, mouse. As to the method:
(A) Dbp expression levels in MEFs either treated with SIRT1 inhibitors (10 mMNAM or […]) or not were analyzed by quantitative PCR. The value at time 20 in MEFs without treatment was set to 1.
(§1) MEFs were generated from WT or homozygous Sirt1−/− sibling mice and cultured in DMEM (4.5 g/l glucose) supplemented with 7.5% newborn bovine serum, 2.5% FBS, and antibiotics. JEG3 cells were grown in Basal Medium Eagle supplemented with 10% FBS and antibiotics.
Each quantitative real-time RT-PCR was performed using the Chromo4 real time detection system (BIO-RAD). The PCR primers for mDbp mRNA, mPer2 mRNA, mCry 1 mRNA, 18S rRNA, Dbp UP, Dbp E-box, Dbp 30R, and mSIRT1 mRNA were described (Ripperger and Schibler, 2006; Rodgers et al., 2005; Yamamoto et al., 2004). PCR primers for Dbp TSS were designed using Real-Time PCR Primer Design (https://www.genscript.com/ssl-bin/app/primer), and the sequences are available upon request. For a […] PCR, 50 ng of cDNA template was mixed with the primers to final concentrations of 200 nM and […] of iQ SYBR Green Supermix (BIO-RAD), respectively. The reaction was first incubated at 95° C. for 3 min, followed by 40 cycles at 95° C. for 30 s and 60° C. for 1 min.

The test system of assay [3] is Sirt1−/− MEFs. The assay is described as follows: circadian gene expression in serum-shocked Sirt1−/− MEFs treated with SIRT1 inhibitors. The assay is classed as cell-based, mouse. As for the experimental part:
as §1

In assay [4] the test system is histone H3 Lys9/Lys14 acetylation at the Dbp transcription start site. The assay is described as follows: ChIP assay of histone H3 (Lys9/Lys14) acetylation at dbp TSS in serum-shocked MEFs. Type of assay: cell-based, mouse. The following applies: WT MEFs after serum shock, 10 mM NAM or. As for the experimental part: (B-D) Crosslinked cell extracts were isolated from MEF without treatment (B) or with SIRT1 inhibitors, 10 mMNAM (C), or […] (D) at indicated time points after serum shock, subjected to ChIP assay, and analyzed by quantitative PCR with dbp TSS primers (See FIG. 4C). Results of semiquantitative PCR are also shown at the bottom of each experiment. The value at time 16 in MEFs without treatment was set to 1. All data presented are the means±SEM of three independent samples.
Conventional ChIP assay was used for histones from MEFs (Yamamoto et al., 2004). For nonhistone proteins, dual crosslinking ChIP assay (Nowak et al., 2005) was used with slight modifications. After serum shock, cells were washed three times with room temperature PBS, then PBS/1 mM MgCl2 was added. Disuccinimidyl Glutalate (DSG) was added to a final concentration of 2 mM for crosslinking. After 45 min at room temperature, formaldehyde was added to a final concentration of 1% (v/v) and cells incubated for 15 min. […]
We analyzed the acetylation at Lys9 and Lys14 of histone H3 because we had previously found these to be preferential sites of CLOCK's HAT activity (Doi et al., 2006), and also because SIRT1 deacetylase function was described to be targeted to these lysines (Imai et al., 2000). […]

In assay [5] the test system is BMAL1 Lys537 acetylation. The assay is described as follows: BMAL1 Lys537 acetylation in JEG3 cells expressing Myc-CLOCK and Flag-Myc-BMAL1, HDAC inhibitor treatment. The assay is classed as cell-based, human. The conditions noted are these: NAM (10 mM) 16 hr. As for the experimental part:
(A) Class III HDAC inhibitor enhances BMAL1 Lys537 acetylation. JEG3 cells transfected with Myc-CLOCK and Flag-Myc-BMAL1 were treated with HDAC I and II inhibitor, TSA […], for 6 hr and HDAC III inhibitor, NAM (10 mM), for 16 hr before harvest. Immunoprecipitated BMAL1 proteins by FLAG antibody were subjected to SDS-PAGE and probed with acetylated BMAL1 or Myc antibodies.
(§2) Recently we have reported that BMAL1 is rhythmically acetylated by CLOCK and that this event is essential for control of circadian function (Hirayama et al., 2007). We have generated an antibody that specifically recognizes acetylated BMAL1 at Lys537 (FIG. 10). Because of the interplay between CLOCK and SIRT1, we suspected that the deacetylase that could regulate the dynamic levels of BMAL1 acetylation could be SIRT1. To identify which class of HDAC is responsible for deacetylation of BMAL1, we treated cultured cells expressing Myc-CLOCK and Flag-Myc-BMAL1 with class I and II inhibitor, trichostatin A (TSA), and/or class III inhibitor, NAM, for 6 hr and 16 hr, respectively. […] We then coexpressed BMAL1 with CLOCK and confirmed that the anti-AcBMAL1 antibody readily recognizes CLOCK-induced acetylation at Lys537 (FIG. 6B). […] We also confirmed that SIRT1 readily deacetylates BMAL1 in an in vitro deacetylation assay (FIG. 11).

Assay [6] concerns the target T1, SIRT1 (Homo sapiens, UniProt Q96EB6).
T1 construct: expressed in transfected cells; host or cells: JEG3
T1 sequence (Q96EB6 1-747): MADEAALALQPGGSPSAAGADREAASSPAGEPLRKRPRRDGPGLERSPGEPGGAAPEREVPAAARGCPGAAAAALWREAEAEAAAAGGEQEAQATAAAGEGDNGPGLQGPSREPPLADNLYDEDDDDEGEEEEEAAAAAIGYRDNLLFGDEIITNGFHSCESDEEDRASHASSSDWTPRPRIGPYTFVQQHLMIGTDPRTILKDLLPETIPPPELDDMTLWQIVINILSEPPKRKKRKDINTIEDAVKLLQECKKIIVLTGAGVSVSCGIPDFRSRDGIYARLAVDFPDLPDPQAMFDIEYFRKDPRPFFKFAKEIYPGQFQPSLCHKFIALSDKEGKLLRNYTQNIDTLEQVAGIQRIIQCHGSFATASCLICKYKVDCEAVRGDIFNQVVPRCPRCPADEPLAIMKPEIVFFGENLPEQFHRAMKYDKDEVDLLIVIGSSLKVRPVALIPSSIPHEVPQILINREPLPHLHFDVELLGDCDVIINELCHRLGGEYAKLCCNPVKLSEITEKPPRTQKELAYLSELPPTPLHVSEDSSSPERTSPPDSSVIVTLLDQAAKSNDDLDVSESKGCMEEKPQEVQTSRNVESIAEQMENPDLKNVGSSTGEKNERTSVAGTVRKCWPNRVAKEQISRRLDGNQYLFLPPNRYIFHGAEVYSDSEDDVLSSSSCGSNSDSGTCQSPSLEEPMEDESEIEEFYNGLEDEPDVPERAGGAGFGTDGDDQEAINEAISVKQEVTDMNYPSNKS
The assay is described as follows: BMAL1 deacetylation by SIRT1 in JEG3 cells transfected with Myc-CLOCK, Flag-Myc-BMAL1 and SIRT1-HA. Type of assay: cell-based. The conditions noted are these: 1 mM NAD+ or 10 mM NAM for 16 hr. As for the experimental part:
(D) Deacetylation of BMAL1 by SIRT1 is NAD^+ dependent manner. JEG3 cells transfected with Myc-CLOCK and Flag-Myc-BMAL1 and SIRT1-HA were treated with 1 mM NAD^+ or 10 mM NAM for 16 hr before harvest. Immunoprecipitated BMAL1 proteins by FLAG antibody were probed with acetylated BMAL1 antibody. SIRT1 protein amount was detected by SIRT1 antibody.
as §2

As for `Oc1ccc(C=Cc2cc(O)cc(O)c2)cc1` [resveratrol], the “modulation of the CLOCK-SIRT1 interaction” value (“modulation” for short) in assay [1] is recorded as “not significantly modulated”.
On to `CC(=O)N(O)CCCCCNC(=O)CCC(=O)N(O)CCCCCNC(=O)CCC(=O)N(O)CCCCCN` [desferroxamine], for which, in assay [1], the “modulation” value is reported as “not significantly modulated”.
On to `NC(=O)c1cccnc1` [NAM, nicotinamide], for which the “dbp expression pattern (circadian oscillation)” value in assay [2] (WT MEFs after serum shock, 10 mM NAM or splitomicin) was “significantly broader phase and higher amplitude in the oscillation; also recorded: loss in stringency of circadian gene expression”. The “effect of SIRT1 inhibitors on circadian gene expression in Sirt1−/− MEFs” value in assay [3] is recorded as “no effect”. The “circadian acetylation of histone H3 Lys9/Lys14 at Dbp TSS” value in assay [4] is reported as “loss in the circadian oscillation of acetylation, generating a noncyclic, high level of Lys9/Lys14 acetylation”. In assay [5], the “acetylation of BMAL1 at Lys537” value was “significantly increased”. Also, the “BMAL1 deacetylation by SIRT1” value in assay [6] is listed as “significantly attenuated”.
As for `O=C1CCc2c(ccc3ccccc23)O1` [splitomicin], the “dbp expression pattern (circadian oscillation)” value in assay [2] was “significantly broader phase and higher amplitude in the oscillation; also recorded: loss in stringency of circadian gene expression”. The “effect of SIRT1 inhibitors on circadian gene expression in Sirt1−/− MEFs” value in assay [3] (Sirt1−/− MEFs, data not shown) was “no effect”. The “circadian acetylation of histone H3 Lys9/Lys14 at Dbp TSS” value in assay [4] is listed as “loss in the circadian oscillation of acetylation, generating a noncyclic, high level of Lys9/Lys14 acetylation”. In addition, the “modulation” value in assay [1] is “not significantly modulated”.
Turning to `NC(=O)c1ccc[n+]([C@@H]2O[C@H](COP(=O)([O-])OP(=O)(O)OC[C@H]3O[C@@H](n4cnc5c(N)ncnc54)[C@H](O)[C@@H]3O)[C@@H](O)[C@H]2O)c1` [NAD^+, nicotinamide adenine dinucleotide], in assay [1], the “modulation” value was “not significantly modulated”. Besides, the “BMAL1 deacetylation by SIRT1” value in assay [6] is recorded as “responsive”.
